In patent US9133181B2, “Substituted 6-(4-hydroxy-phenyl)-1H-pyrazolo[3,4-b]pyridine derivatives as kinase inhibitors” (SANOFI, priority 2012, dated 2015):

target: T1, human full-length recombinant PKC βII (Homo sapiens, UniProt P05771); assay: Determination of PKC βII inhibition (Caliper mobility shift kinase assay); assay type: biochemical; conditions: final compound concentration 1.14 μM (±0.15 μM); 60 min incubation at 32° C.
T1 construct: Active human full-length recombinant PKC βII; purchased Invitrogen GmbH, Darmstadt, Germany
Description: Determination of PKC βII Inhibition
PKC βII inhibition was determined according to the following protocol:
Active human full-length recombinant PKC βII and the peptide substrate, Fluorescein-RFARKGSLRQKNV, were purchased from Invitrogen GmbH, Darmstadt, Germany. Adenosine-5′-triphosphate (ATP), bovine serum albumine (BSA), dimethylsulphoxide (DMSO), 4-(2-hydroxyethyl)piperazine-1-ethanesulfonic acid (Hepes), Triton X-100, 1,2-Dioleoyl-sn-glycerol (DAG), L-α-Phosphatidyl-L-serine (PS), calcium chloride (CaCl2), and Pluronic F-68 were purchased from Sigma-Aldrich, Munich, Germany. Magnesium chloride, 1 M sodium hydroxide solution, 1M hydrochloric acid solution and EDTA were obtained from Merck Biosciences, Darmstadt, Germany.
Test compounds were diluted to three times the test concentration in buffer 1 (30 mM Hepes-NaOH, pH 7.4, 0.01% Pluronic F-68 and 3% (v/v) DMSO). The […] enzyme was diluted to a concentration of 30 ng/ml in buffer 2 (30 mM Hepes-NaOH, pH 7.4, 15 mM MgCl2, 150 μM CaCl2, 150 μg/ml PS, 60 μg/ml DAG, and 0.045% (w/v) Triton X-100). The peptide substrate and ATP were diluted to concentrations of 3 μM and 120 μM, respectively, in buffer 2. Two μl of the compound solution were mixed with 2 μl of the diluted enzyme in a 384-well small volume microtiter plate (Greiner, Bio-One, Frickenhausen, Germany), and the kinase reaction was initiated by addition of 2 μl of the solution containing peptide substrate and ATP. After 60 min incubation at 32° C., the reaction was stopped by addition of 20 μl of a solution containing 130 mM Hepes-NaOH, pH 7.4, 0.0195% (v/v) Brij-35, 6.5 mM EDTA, 0.13% chip coating reagent 3 (Caliper Lifescience Inc, Hopkinton, Mass.) and 6.5% (v/v) DMSO. Phosphorylation of the substrate peptide was then detected on a Caliper 3000 instrument essentially as described by Pommereau et al (J. Biomol. Screening 2004, 9(5), 409-416). Separation conditions were as follows: Pressure −0.8 psi, upstream voltage −3000 V, downstream voltage −800 V. Positive controls (buffer 1 instead of compound) and negative controls (buffer 1 instead of compound and buffer 2 instead of kinase solution) were run in parallel on each plate. Fractional turnover (R) was determined as the height of the peak of the phosphorylated peptide product divided by the sum of the unphosphorylated substrate and phosphorylated product peak heights. Percent-inhibition values for the test compounds were determined using the formula % Inhibition=100*(1−(Rcompound−Rnegative control)/(Rpositive control−Rnegative control).
In the following table % inhibition values observed with example compounds at a final concentration of 1.14 μM (±0.15 μM) are listed: […]

T1 sequence (P05771 1-673 isoform P05771-2): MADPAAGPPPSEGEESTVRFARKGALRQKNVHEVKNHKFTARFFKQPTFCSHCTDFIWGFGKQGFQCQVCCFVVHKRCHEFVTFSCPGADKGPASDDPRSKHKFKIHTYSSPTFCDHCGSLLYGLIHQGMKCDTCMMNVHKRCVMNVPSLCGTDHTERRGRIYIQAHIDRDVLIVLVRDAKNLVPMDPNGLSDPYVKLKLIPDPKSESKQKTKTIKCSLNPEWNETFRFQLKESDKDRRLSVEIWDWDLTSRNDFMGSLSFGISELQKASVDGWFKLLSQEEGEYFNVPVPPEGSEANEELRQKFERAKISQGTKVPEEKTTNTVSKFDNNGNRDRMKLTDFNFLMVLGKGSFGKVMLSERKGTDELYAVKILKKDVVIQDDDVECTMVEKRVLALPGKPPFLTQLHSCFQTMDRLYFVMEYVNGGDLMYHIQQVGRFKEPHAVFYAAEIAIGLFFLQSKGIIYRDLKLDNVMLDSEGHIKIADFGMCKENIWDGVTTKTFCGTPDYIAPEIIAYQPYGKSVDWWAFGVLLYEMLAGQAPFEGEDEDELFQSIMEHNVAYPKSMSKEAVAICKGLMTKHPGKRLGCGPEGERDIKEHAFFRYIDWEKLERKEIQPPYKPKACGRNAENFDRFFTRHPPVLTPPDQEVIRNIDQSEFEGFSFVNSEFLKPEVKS

inhibition at 1.14 µM	SMILES
96%	CCC1(CC)CN(Cc2cc(-c3ccc(O)cc3Cl)nc3[nH]nc(C)c23)C(C)(C)CN1 [Example 59, 3-Chloro-4-[4-(5,5-diethyl-2,2-dimethyl-piperazin-1-ylmethyl)-3-methyl-1H-pyrazolo[3,4-b]pyridin-6-yl]-phenol]
92%	Cc1n[nH]c2nc(-c3ccc(O)cc3)cc(CNC3CCNCC3(C)C)c12 (stereo not drawn) [Example 60, 4-{4-[(3,3-Dimethyl-piperidin-4-ylamino)-methyl]-3-methyl-1H-pyrazolo[3,4-b]pyridin-6-yl}-phenol]
84%	Cc1n[nH]c2nc(-c3ccc(O)cc3)cc(CN3CC(C)N(Cc4cccnc4)CC3(C)C)c12 (stereo not drawn) [Example 61, 4-[3-Methyl-4-(2,2,5-trimethyl-4-pyridin-3-ylmethyl-piperazin-1-ylmethyl)-1H-pyrazolo[3,4-b]pyridin-6-yl]-phenol]
99%	Cc1n[nH]c2nc(-c3ccc(O)cc3)cc(CN3CC(C)N(CC4CCCO4)CC3(C)C)c12 (stereo not drawn) [Example 62, 4-{3-Methyl-4-[2,2,5-trimethyl-4-(tetrahydro-furan-2-ylmethyl)-piperazin-1-ylmethyl]-1H-pyrazolo[3,4-b]pyridin-6-yl}-phenol]
97%	COCCN1CC(C)(C)N(Cc2cc(-c3ccc(O)cc3)nc3[nH]nc(C)c23)CC1C (stereo not drawn) [Example 63, 4-{4-[4-(2-Methoxy-ethyl)-2,2,5-trimethyl-piperazin-1-ylmethyl]-3-methyl-1H-pyrazolo[3,4-b]pyridin-6-yl}-phenol]
94%	COCCCN1CC(C)(C)N(Cc2cc(-c3ccc(O)cc3)nc3[nH]nc(C)c23)CC1C (stereo not drawn) [Example 64, 4-{4-[4-(3-Methoxy-propyl)-2,2,5-trimethyl-piperazin-1-ylmethyl]-3-methyl-1H-pyrazolo[3,4-b]pyridin-6-yl}-phenol]
88%	Cc1n[nH]c2nc(-c3ccc(O)cc3F)cc(CN3CC(C)(C)N(CCC(F)(F)F)CC3(C)C)c12 [Example 65, 3-Fluoro-4-{3-methyl-4-[2,2,5,5-tetramethyl-4-(3,3,3-trifluoro-propyl)-piperazin-1-ylmethyl]-1H-pyrazolo[3,4-b]pyridin-6-yl}-phenol]
100%	Cc1n[nH]c2nc(-c3ccc(O)cc3F)cc(CN3CC(C)(C)N(C)CC3(C)C)c12 [Example 66, 3-Fluoro-4-[3-methyl-4-(2,2,4,5,5-penta-methyl-piperazin-1-ylmethyl)-1H-pyrazolo[3,4-b]-pyridin-6-yl]-phenol]
103%	COCCCN1CC(C)(C)N(Cc2cc(-c3ccc(O)cc3F)nc3[nH]nc(C)c23)CC1(C)C [Example 67, 3-Fluoro-4-{4-[4-(3-methoxy-propyl)-2,2,5,5-tetramethyl-piperazin-1-ylmethyl]-3-methyl-1H-pyrazolo[3,4-b]pyridin-6-yl}-phenol]
101%	Cc1n[nH]c2nc(-c3ccc(O)cc3F)cc(CN3CC(C)(C)N(CCC4CCOCC4)CC3(C)C)c12 [Example 68, 3-Fluoro-4-(3-methyl-4-{2,2,5,5-tetramethyl-4-[2-(tetrahydro-pyran-4-yl)-ethyl]-piperazin-1-ylmethyl}-1H-pyrazolo[3,4-b]pyridin-6-yl)-phenol]
92%	Cc1n[nH]c2nc(-c3ccc(O)cc3F)cc(CN3CC(C)(C)N(C[C@H]4COC(C)(C)O4)CC3(C)C)c12 [Example 69, 4-{4-[4-((S)-2,2-Dimethyl-[1,3]dioxolan-4-ylmethyl)-2,2,5,5-tetramethyl-piperazin-1-ylmethyl]-3-methyl-1H-pyrazolo[3,4-b]pyridin-6-yl}-3-fluoro-phenol]
96%	Cc1n[nH]c2nc(-c3ccc(O)cc3F)cc(CN3CC(C)(C)N(CC4CCOCC4)CC3(C)C)c12 [Example 70, 3-Fluoro-4-{3-methyl-4-[2,2,5,5-tetramethyl-4-(tetrahydro-pyran-4-ylmethyl)-piperazin-1-ylmethyl]-1H-pyrazolo[3,4-b]pyridin-6-yl}-phenol]
98%	Cc1n[nH]c2nc(-c3ccc(O)cc3F)cc(CN3CC4(CCCC4)N(C)CC3(C)C)c12 [Example 71, 3-Fluoro-4-[3-methyl-4-(6,8,8-trimethyl-6,9-diaza-spiro[4.5]dec-9-ylmethyl)-1H-pyrazolo[3,4-b]pyridin-6-yl]-phenol]
100%	Cc1n[nH]c2nc(-c3ccc(O)cc3F)cc(CN3CC(C)(C)N(CCO)CC3(C)C)c12 [Example 72, 3-Fluoro-4-{4-[4-(2-hydroxy-ethyl)-2,2,5,5-tetramethyl-piperazin-1-ylmethyl]-3-methyl-1H-pyrazolo[3,4-b]pyridin-6-yl}-phenol]
97%	Cc1n[nH]c2nc(-c3ccc(O)cc3F)cc(CN3CC(C)(C)N(C[C@H](O)CO)CC3(C)C)c12 [Example 73, (S)-3-{4-[6-(2-Fluoro-4-hydroxy-phenyl)-3-methyl-1H-pyrazolo[3,4-b]pyridin-4-ylmethyl]-2,2,5,5-tetramethyl-piperazin-1-yl}-propane-1,2-diol]
95%	COC(=O)CN1CC(C)(C)N(Cc2cc(-c3ccc(O)cc3F)nc3[nH]nc(C)c23)CC1(C)C [Example 74, {4-[6-(2-Fluoro-4-hydroxy-phenyl)-3-methyl-1H-pyrazolo[3,4-b]pyridin-4-ylmethyl]-2,2,5,5-tetramethyl-piperazin-1-yl}-acetic acid methyl ester]
96%	COCC(=O)N1CC(C)(C)N(Cc2cc(-c3ccc(O)cc3F)nc3[nH]nc(C)c23)CC1(C)C [Example 75, 1-{4-[6-(2-Fluoro-4-hydroxy-phenyl)-3-methyl-1H-pyrazolo[3,4-b]pyridin-4-ylmethyl]-2,2,5,5-tetramethyl-piperazin-1-yl}-2-methoxy-ethanone]
95%	COCCC(=O)N1CC(C)(C)N(Cc2cc(-c3ccc(O)cc3F)nc3[nH]nc(C)c23)CC1(C)C [Example 76, 1-{4-[6-(2-Fluoro-4-hydroxy-phenyl)-3-methyl-1H-pyrazolo[3,4-b]pyridin-4-ylmethyl]-2,2,5,5-tetramethyl-piperazin-1-yl}-3-methoxy-propan-1-one]
98%	Cc1n[nH]c2nc(-c3ccc(O)cc3F)cc(CN3CC(C)(C)N(C(=O)C4CCOC4)CC3(C)C)c12 (stereo not drawn) [Example 77, {4-[6-(2-Fluoro-4-hydroxy-phenyl)-3-methyl-1H-pyrazolo[3,4-b]pyridin-4-ylmethyl]-2,2,5,5-tetramethyl-piperazin-1-yl}-(tetrahydro-furan-3-yl)-methanone]
97%	CC(=O)N1CC(C)(C)N(Cc2cc(-c3ccc(O)cc3F)nc3[nH]nc(C)c23)CC1(C)C [Example 78, 1-{4-[6-(2-Fluoro-4-hydroxy-phenyl)-3-methyl-1H-pyrazolo[3,4-b]pyridin-4-ylmethyl]-2,2,5,5-tetramethyl-piperazin-1-yl}-ethanone]
65%	COCC(=O)N1CCCN(Cc2cc(-c3ccc(O)cc3F)nc3[nH]nc(C)c23)CC1C (stereo not drawn) [Example 79, 1-{4-[6-(2-Fluoro-4-hydroxy-phenyl)-3-methyl-1H-pyrazolo[3,4-b]pyridin-4-ylmethyl]-2-methyl-[1,4]diazepan-1-yl}-2-methoxy-ethanone]
93%	Cc1n[nH]c2nc(-c3ccc(O)cc3F)cc(CN3CC(C)(C)N(C(=O)CO)CC3(C)C)c12 [Example 80, 1-{4-[6-(2-Fluoro-4-hydroxy-phenyl)-3-methyl-1H-pyrazolo[3,4-b]pyridin-4-ylmethyl]-2,2,5,5-tetramethyl-piperazin-1-yl}-2-hydroxy-ethanone]
97%	COCC(=O)NC1(C)CCCN(Cc2cc(-c3ccc(O)cc3F)nc3[nH]nc(C)c23)C1 (stereo not drawn) [Example 81, N-{1-[6-(2-Fluoro-4-hydroxy-phenyl)-3-methyl-1H-pyrazolo[3,4-b]pyridin-4-ylmethyl]-3-methyl-piperidin-3-yl}-2-methoxy-acetamide]
85%	COCC(=O)N1CC(C)N(Cc2cc(-c3ccc(O)cc3)nc3[nH]nc(C)c23)CC12CCCC2 (stereo not drawn) [Example 82, 1-{9-[6-(4-Hydroxy-phenyl)-3-methyl-1H-pyrazolo[3,4-b]pyridin-4-ylmethyl]-8-methyl-6,9-diaza-spiro[4.5]dec-6-yl}-2-methoxy-ethanone]
